Laboratory results from patent US11835532B2, “Green concentrated reagent for hemotology systems” (priority 2018, dated 2023).

Assay: Response of test reagent pools to osmolality, conductivity and pH adjusters
Type: physicochemical
Details: osmolality and conductivity adjuster added to working concentration reagent
Method: Assays were performed to characterize the response of the test reagents according to Table 2 to adjustments targeting changes to the pH, osmolality and conductivity of the reagent test pools.
Each of the test pools were adjusted for osmolality and conductivity with different chemicals, for example, sodium chloride, sodium sulfate, potassium sulfate, potassium bisulfate, imidazole and sodium phosphate monobasic. Adjusting for osmolality or conductivity parameters impacts all three parameters of pH, conductivity and osmolality.
Variation of pH, conductivity and osmolality was observed by adding increasing amounts of each adjuster to a test reagent pool. Amounts of each adjuster to achieve target midpoint were established. The target pH, osmolality and conductivity were pH 7.02-7.20, target osmolality 315-360 mOsm/Kg, and target conductivity 19.05-20.00 mS/cm.
All pH, conductivity and osmolality adjusters functioned as expected with no precipitation.

| ▴ Conductivity | ▴ Osmolality | ▴ pH/gm | Structure (SMILES) |
| --- | --- | --- | --- |
| +1.61 mS/cm/gm | +29.2 mOsm/kg/gm | 0.00 | [Cl-].[Na+] [Sodium Chloride] |
| +1.07 mS/cm/gm | +11.9 mOsm/kg/gm | +0.02 | O=S(=O)([O-])[O-].[K+].[K+] [Potassium Sulfate] |
| +0.88 mS/cm/gm | +14.1 mOsm/kg/gm | +0.01 | O=S(=O)([O-])[O-].[Na+].[Na+] [Sodium Sulfate] |

Same assay, conditions: pH adjuster added to working concentration reagent

| Osmolality change per gram of adjuster | ▴ Conductivity | ▴ pH/gm | Structure (SMILES) |
| --- | --- | --- | --- |
| +12.0 mOsm/kg/gm | +0.46 mS/cm/gm | −0.14 | O=P([O-])(O)O.[Na+] [Sodium Phosphate Mono] |
| +13.7 mOsm/kg/gm | +0.38 mS/cm/gm | +0.39 | [Na+].[OH-] [50% Sodium Hydroxide] |
| +24.9 mOsm/kg/gm | +0.28 mS/cm/gm | +0.21 | c1c[nH]cn1 [Imidazole] |

| Structure (SMILES) | Osmolality change per gram of adjuster | ▴ Conductivity | ▴ pH/gm |
| --- | --- | --- | --- |
| Cl [6N Hydrochloric Acid] | +7.0 mOsm/kg/gm | +0.33 mS/cm/gm | −0.16 |
